Data on 1 compound can be found in patent US4459241A, “Compounds containing quaternary ammonium and methylenephosphonic acid groups” (The Dow Chemical Company, priority 1983, dated 1984).

A short description of the experiment: scale inhibition test with respect to calcium carbonate (soluble calcium retained, 24 h at 80° C.). To be noted: 10 ppm based on active acid, 0.02M CaCl2 + 0.04M sodium bicarbonate/0.96M sodium chloride, 24-hour period, blank 12%. Type of experiment: physicochemical.

Method: To these solutions is added the candidate inhibitor in various concentrations. Fifty-ml samples of a 0.04M sodium bicarbonate/0.96M sodium chloride solution are then added with stirring. A total hardness determination is made on the mixture by adding excess standard EDTA to a sample and back titrating with standard Mg^++ solution in the presence of Eriochrome Black T indicator. The samples are placed in an 80° C. oven and 10-ml samples taken periodically from each bottle, filtered through a millipore filter, and the total hardness of the filtrates determined by titration. A blank with no inhibitor is run in an identical manner. The relative inhibition effects are shown by determining the amount of hardness (as soluble calcium) before and after heating for a 24-hour period. The amount of soluble calcium as a percent of that originally present is indicated as % inhibition.
All products and comparative runs were made using a concentration of 10 ppm based on active acid.

In the case of `C[N+](C)(C)CC(O)CN(CCN(CP(=O)(O)O)CP(=O)(O)O)CP(=O)(O)O` (stereo not shown) [Product Ex. 1], the “% Inhibition (amount of soluble calcium as a percent of that originally present)” value came to 41.8%.
